No end group written: not given here.
How the values were obtained:
[1] = system: polyvinylchloride sponge disc implants (wound healing); assay: Wound breaking strength of rejoined sponge disc halves implanted in rats; format: in vivo, rat; conditions: at seven days, control group 440 g
From the text: (§1) Twenty-two male rats weighing between 300 g and 325 g were anesthetized, after which their backs and abdomens were shaved and washed with 70% ethanol. Three modified polyvinylchloride sponge discs 2 mm thick and 15 mm in diameter were implanted in each rat abdominally in subcutaneous pockets made under the skin. Two of the implants were cut in half and rejoined before the implantation, and the remaining disc was sandwiched between two silicone discs which forced granulation tissue infiltration to occur from the periphery of the disc. A single 15 mm×15 mm square full excision wound was made on the back and the wound edges tattooed.
(§2) The rats were then divided into four groups. A first, or control, group of four rats received sham injections daily. A second group of four rats received daily intramuscular injections of 10 mg of cortisone acetate. Cortisone is known to be an inhibitor of wound healing. A third group of seven rats received daily intramuscular injections of 0.3 mg of amide-terminated Magainin II. A fourth group of seven rats received daily intramuscular injections of 10 mg of cortisone acetate and 0.3 mg of Magainin II at separate sites. At seven days, rat weights were recorded, wound sizes measured, and the implants harvested. The staple which joined the two disc halves together was carefully removed and the breaking strength measured. Collagen content from the implant halves from each treatment group was measured by weighing the pepsin extracted native collagen. The sponge halves are homogenized in 0.5M ice-cold acetic acid containing 0.1 mg of pepsin per ml. The homogenate was stirred for 24 hours at 4° C., centrifuged, and supernatants saved. The native solubilized collagen was isolated by adding sodium chloride to 10 % w/v. The salt precipitate was collected by centrifugation (10,000× g for 10 min.) and then taken up in 145 mM potassium phosphate buffer pH7.6, exhaustively dialyzed against 1 mM HCl, lyophilized and its dry weight recorded. Confirmation of collagen purity was made by SDS polyacrylamide gel electrophoresis. […]

full excision wound = assay: Wound contraction of 15 mm x 15 mm square full excision wound on the back of rats; format: in vivo, rat; conditions: for average wound contraction: at seven days, control group 67%
From the text: as §1
The rats were then divided into four groups. A first, or control, group of four rats received sham injections daily. A second group of four rats received daily intramuscular injections of 10 mg of cortisone acetate. Cortisone is known to be an inhibitor of wound healing. A third group of seven rats received daily intramuscular injections of 0.3 mg of amide-terminated Magainin II. A fourth group of seven rats received daily intramuscular injections of 10 mg of cortisone acetate and 0.3 mg of Magainin II at separate sites. At seven days, rat weights were recorded, wound sizes measured, and the implants harvested. The staple which joined the two disc halves together was carefully removed and the breaking strength measured. Collagen content from the implant halves from each treatment group was measured by weighing the pepsin extracted native collagen. The sponge halves are homogenized in 0.5M ice-cold acetic acid containing 0.1 mg of pepsin per ml. The homogenate was stirred for 24 hours at 4° C., centrifuged, and supernatants saved. The native solubilized collagen was isolated by adding sodium chloride to 10 % w/v. The salt precipitate was collected by centrifugation (10,000× g for 10 min.) and then taken up in 145 mM potassium phosphate buffer pH7.6, exhaustively dialyzed against 1 mM HCl, lyophilized and its dry weight recorded. Confirmation of collagen purity was made by SDS polyacrylamide gel electrophoresis. Pepsin digestion extracts only native collagen, needed for the formation of collagen fibers. The accumulations of collagen in the early stages of healing are responsible for gain in wound tensile strength. Collagen content from the implants taken from the group treated with cortisone acetate alone averged 0.82 mg/sponge, as compared with 3.43 mg/sponge for the control group.

[2] = system: polyvinylchloride sponge disc implants (wound healing); assay: Collagen content of subcutaneous polyvinylchloride sponge disc implants in rats (pepsin extracted native collagen); format: in vivo, rat; conditions: at seven days, control group 3.43 mg/sponge
From the text: as §1, §2

[3] = system: cortisone inhibition of wound healing; conditions: antagonism of cortisone-inhibited wound healing; cited from earlier work
[4] = cortisone acetate alone, 10 mg daily intramuscular
[5] = 0.3 mg Magainin II plus 10 mg cortisone acetate daily intramuscular at separate sites
[6] = Magainin II alone, 0.3 mg daily intramuscular

## CC(=O)OCC(=O)[C@@]1(O)CC[C@H]2[C@@H]3CCC4=CC(=O)CC[C@]4(C)[C@H]3C(=O)C[C@@]21C [cortisone acetate]
[1]; [4]
  average wound breaking strength: 195 g
Full excision wound; [4]
  average wound contraction: 28%
[2]; [4]
  average collagen content: 0.82 mg/sponge

## GIGKFLHSAKKFGKAFVGEIMNS-NH2 [Magainin II]
[1]; [5]
  average wound breaking strength: 320 g
[1]; [6]
  average wound breaking strength: 415 g
Full excision wound; [5]
  average wound contraction: 53%
Full excision wound; [6]
  average wound contraction: 65%
Full excision wound; rats given cortisone acetate and Magainin II, conclusion in words
  effect on cortisone inhibition of wound healing (collagen deposition and wound contraction): antagonistic of cortisone inhibition of wound healing
[2]; [5]
  average collagen content: 3.20 mg/sponge
[2]; [6]
  average collagen content: 3.82 mg/sponge

## Vitamin A
[3]
  restoring connective tissue deposition: effective in restoring connective tissue deposition
  restoring wound contraction: ineffective in restoring wound contraction

## growth hormone: other antagonist of cortisone inhibition of wound healing
[3]
  restoring connective tissue deposition: effective in restoring connective tissue deposition
  restoring wound contraction: ineffective in restoring wound contraction

Source: patent publication US5045531A, “Wound treatment employing biologically active ion channel forming peptides and proteins” (Magainin Sciences Inc., priority 1989, dated 1991)
